From patent US9145411B2, “Substituted amino-pyrimidine derivatives” (Asana Biosciences, LLC, priority 2012, dated 2015)

Legend:
[1] = molecular target: T1, PI3Kα (wild-type) (Homo sapiens, UniProt P42336); test: PI3 Kinase TR-FRET assay, PI3Kα (wild-type); format: biochemical; conditions: wild-type P110/P85α, 10 μM ATP
T1 construct: made in house; host or cells: SF9 insect cells
Protocol: The ability of compounds of the invention to inhibit PI3K activity was determined in a homogeneous TR-FRET assay using a PI3K assay kit (Millipore, USA; cat #33-016) according to manufacturer's instructions. PI3-Kinases (isoforms α, β, γ and δ) catalyze the phosphorylation of phosphatidylinositol, PIP2 to PIP3 in the presence of ATP and Mg^2+. The PIP3 product is detected by displacement of biotin-PIP3 from an energy transfer complex consisting of Europium labeled anti-GST monoclonal antibody, a GST-tagged PH domain, biotinylated PIP3 and Streptavidin-APC. Excitation of Europium in the complex results in an energy transfer to the APC and a fluorescence emission at 665 nm. The PIP3 product displaces biotin-PIP3 from the complex resulting in a loss of energy transfer and thus a decrease in signal.
To test for the ability of compounds to inhibit the activity of PI3Kα (wild-type), exemplary compounds of formula (I) were dissolved in DMSO and directly distributed into 384-well plates at a volume of 0.5 μL. 14.5 μL of P110/P85α/PIP2 mixture in buffer (obtained from the Millipore kit) containing MgCl2 (40 mM) and DTT (5 mM) was added to compound wells and incubated for 60 minutes at room temperature. P110/P85α was expressed in SF9 insect cells and purified nickel column extraction. Five ng of wild-type P110/P85α was used in the assay. The kinase reaction was started by the addition of ATP. The assay concentrations of both PIP2 and ATP were 10 μM. The reaction mixture was incubated for 30 minutes at room temperature and was terminated by the addition of stop mix and detection mix. Fluorescence was measured at 615 and 665 nm upon excitation at 340 nm in a Victor™ V5 fluorometer (Perkin Elmer, USA). The fluorescence emission ratio at 665 to 615 nm, proportional to the kinase activity, was plotted against the compound concentration to generate dose-response curves and IC50 values were determined using GraphPad Prism® 5 software.

[2] = molecular target: T2, mTOR kinase (Homo sapiens, UniProt P42345); test: mTOR kinase TR-FRET assay; format: biochemical; conditions: 20 μM ATP
T2 construct: purchased Millipore, USA
Protocol: Compound inhibition for mTOR kinase was determined in a homogeneous TR-FRET assay using the Lance® ULight-p70 S6K (Thr 389) peptide (obtained from Perkin-Elmer). The ULight™-labeled synthetic peptide contains the amino acid residues surrounding Thr389 of human p70 S6K. The ULight-p70 S6K peptide is phosphorylated at Thr389 by mTOR. Phosphorylation motif: LGFTYVAP as substrate.
The compound dilution was carried out in 100% DMSO followed by a buffer dilution. The reaction buffer was HEPES (50 mM pH 7.5), EGTA (1 mM), MnCl2 (3 mM). Test compounds at various concentrations were pre-incubated with mTOR (Millipore, USA; 5 ng) for 60 min, and then the Lance® ULight-p70 S6K (Thr 389) peptide (50 nM) was added along with ATP (20 μM). After incubating the reaction mixture for 60 minutes at room temperature, the kinase reaction was terminated by the addition of EDTA (10 mM) followed by the addition of detection mix, i.e., 1 nM Eu-labeled anti-phospho-substrate antibody (Perkin Elmer, USA). The fluorescence emission at […] was measured upon excitation at 340 nm. IC50 values were subsequently determined using a sigmoidal dose-response curve (variable slope) in GraphPad Prism® 5 software.
Compounds of formula (I) caused inhibition of mTOR kinase activity as determined by this assay.

T2 sequence (P42345 1362-2549 limits assumed): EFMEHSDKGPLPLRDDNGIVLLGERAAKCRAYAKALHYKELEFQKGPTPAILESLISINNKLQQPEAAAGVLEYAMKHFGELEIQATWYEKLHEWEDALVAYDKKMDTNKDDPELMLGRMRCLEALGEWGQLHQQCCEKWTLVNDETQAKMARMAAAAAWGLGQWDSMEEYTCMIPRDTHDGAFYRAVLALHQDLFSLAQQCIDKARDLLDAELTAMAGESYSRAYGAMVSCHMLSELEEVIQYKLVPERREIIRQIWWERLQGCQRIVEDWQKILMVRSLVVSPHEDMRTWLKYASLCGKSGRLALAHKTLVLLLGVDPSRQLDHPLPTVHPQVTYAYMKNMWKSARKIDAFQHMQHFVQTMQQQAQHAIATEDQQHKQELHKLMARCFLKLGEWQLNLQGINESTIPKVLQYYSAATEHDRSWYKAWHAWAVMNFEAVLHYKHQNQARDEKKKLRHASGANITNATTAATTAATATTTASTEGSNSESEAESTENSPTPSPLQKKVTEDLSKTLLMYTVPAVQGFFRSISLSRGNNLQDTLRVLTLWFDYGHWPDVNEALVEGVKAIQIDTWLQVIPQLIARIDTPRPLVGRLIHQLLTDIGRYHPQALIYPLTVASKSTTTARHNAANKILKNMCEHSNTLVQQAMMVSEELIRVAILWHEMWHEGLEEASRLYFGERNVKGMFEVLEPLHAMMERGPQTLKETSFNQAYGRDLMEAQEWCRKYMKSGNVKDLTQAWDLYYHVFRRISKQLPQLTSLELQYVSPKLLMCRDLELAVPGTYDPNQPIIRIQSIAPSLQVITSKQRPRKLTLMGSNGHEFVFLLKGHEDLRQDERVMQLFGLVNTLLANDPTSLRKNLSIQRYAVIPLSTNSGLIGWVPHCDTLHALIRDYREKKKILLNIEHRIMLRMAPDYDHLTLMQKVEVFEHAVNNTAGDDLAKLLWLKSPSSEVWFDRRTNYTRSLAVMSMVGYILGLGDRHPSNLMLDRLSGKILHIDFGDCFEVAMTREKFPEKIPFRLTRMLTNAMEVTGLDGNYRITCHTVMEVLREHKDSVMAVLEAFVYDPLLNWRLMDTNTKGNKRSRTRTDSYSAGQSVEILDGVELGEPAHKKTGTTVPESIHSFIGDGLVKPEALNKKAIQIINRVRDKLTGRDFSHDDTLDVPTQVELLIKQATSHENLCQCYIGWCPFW
T1 sequence (P42336 whole entry, species assumed): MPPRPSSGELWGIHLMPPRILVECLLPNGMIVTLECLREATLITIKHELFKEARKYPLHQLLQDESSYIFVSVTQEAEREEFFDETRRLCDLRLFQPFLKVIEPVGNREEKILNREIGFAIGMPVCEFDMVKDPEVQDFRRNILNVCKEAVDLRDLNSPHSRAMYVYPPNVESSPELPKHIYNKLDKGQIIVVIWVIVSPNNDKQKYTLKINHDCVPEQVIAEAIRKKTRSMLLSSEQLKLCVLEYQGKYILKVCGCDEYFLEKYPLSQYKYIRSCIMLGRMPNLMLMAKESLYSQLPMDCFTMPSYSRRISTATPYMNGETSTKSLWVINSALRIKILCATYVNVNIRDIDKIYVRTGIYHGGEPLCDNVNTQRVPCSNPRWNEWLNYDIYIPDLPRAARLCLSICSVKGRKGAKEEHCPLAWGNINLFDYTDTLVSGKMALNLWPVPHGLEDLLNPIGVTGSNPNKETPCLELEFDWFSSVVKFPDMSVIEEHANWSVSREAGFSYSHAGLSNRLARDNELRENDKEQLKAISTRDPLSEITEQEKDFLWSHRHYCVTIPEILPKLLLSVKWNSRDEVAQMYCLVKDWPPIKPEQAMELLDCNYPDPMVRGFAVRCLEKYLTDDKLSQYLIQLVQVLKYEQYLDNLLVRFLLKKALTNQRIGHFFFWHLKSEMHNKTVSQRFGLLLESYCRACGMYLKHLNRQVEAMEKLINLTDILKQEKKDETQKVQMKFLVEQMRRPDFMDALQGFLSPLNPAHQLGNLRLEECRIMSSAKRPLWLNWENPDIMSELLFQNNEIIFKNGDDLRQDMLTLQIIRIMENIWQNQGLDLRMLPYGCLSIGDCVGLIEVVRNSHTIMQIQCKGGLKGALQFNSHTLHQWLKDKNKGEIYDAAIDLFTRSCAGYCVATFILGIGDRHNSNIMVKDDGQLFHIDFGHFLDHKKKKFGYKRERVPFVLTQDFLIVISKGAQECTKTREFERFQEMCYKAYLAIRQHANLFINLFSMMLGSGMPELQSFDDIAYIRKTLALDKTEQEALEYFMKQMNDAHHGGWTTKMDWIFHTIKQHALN
T1 sequence (P27986 whole entry partner, species assumed): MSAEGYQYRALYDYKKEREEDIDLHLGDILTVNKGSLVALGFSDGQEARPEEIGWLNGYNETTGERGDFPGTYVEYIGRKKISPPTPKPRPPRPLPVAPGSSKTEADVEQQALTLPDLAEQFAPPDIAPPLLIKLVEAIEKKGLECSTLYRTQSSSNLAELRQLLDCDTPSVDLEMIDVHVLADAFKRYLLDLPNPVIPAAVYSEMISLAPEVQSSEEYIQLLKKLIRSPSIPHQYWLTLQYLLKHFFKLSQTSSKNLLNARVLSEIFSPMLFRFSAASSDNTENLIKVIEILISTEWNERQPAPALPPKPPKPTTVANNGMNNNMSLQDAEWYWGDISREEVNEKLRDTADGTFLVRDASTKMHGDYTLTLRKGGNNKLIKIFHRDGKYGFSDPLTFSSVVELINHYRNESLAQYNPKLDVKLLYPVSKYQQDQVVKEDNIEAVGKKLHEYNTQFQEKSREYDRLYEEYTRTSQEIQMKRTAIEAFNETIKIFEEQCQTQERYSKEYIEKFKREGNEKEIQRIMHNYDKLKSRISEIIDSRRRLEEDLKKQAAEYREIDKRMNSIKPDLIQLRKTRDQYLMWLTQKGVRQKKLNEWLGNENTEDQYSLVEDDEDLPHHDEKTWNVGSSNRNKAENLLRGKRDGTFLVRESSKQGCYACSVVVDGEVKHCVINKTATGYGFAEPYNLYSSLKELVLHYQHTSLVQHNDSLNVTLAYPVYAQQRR

IC50 [1] [µM]	IC50 [2] [µM]	SMILES
0.05 to 0.2	0.05 to 0.2	CC(C)(O)C(=O)Nc1cccc(-c2ccc3c(N4CCOCC4)nc(-c4cnc(N)nc4)nc3c2)c1 [Example 6, N-(3-(2-(2-Aminopyrimidin-5-yl)-4-morpholinoquinazolin-7-yl)phenyl)-2-hydroxy-2-methylpropanamide]
0.201 to 10	0.201 to 10	CC(O)C(=O)N1CCN(Cc2cnc3c(N4CCOCC4)nc(-c4cnc(N)nc4)nc3c2)CC1 (stereo not shown) [Example 11, 1-(4-((2-(2-aminopyrimidin-5-yl)-4-morpholinopyrido[3,2-d]pyrimidin-7-yl)-methyl)piperazin-1-yl)-2-hydroxypropan-1-one]
0.201 to 10	0.201 to 10	Nc1ncc(-c2nc(N3CCOCC3)c3ccc(-c4cncnc4)cc3n2)cn1 [Example 12, 5-(4-morpholino-7-(pyrimidin-5-yl)quinazolin-2-yl)pyrimidin-2-amine]
	0.05 to 0.2	Nc1ncc(-c2nc(N3CCOCC3)c3ccc(-c4ccsc4)cc3n2)cn1 [Example 17, 5-(4-morpholino-7-(thiophen-3-yl)-quinazolin-2-yl)-pyrimidin-2-amine]
0.201 to 10	0.201 to 10	CS(=O)(=O)c1cncc(-c2ccc3c(N4CCOCC4)nc(-c4cnc(N)nc4)nc3c2)c1 [Example 18, 5-(7-(5-(methyl-sulfonyl)pyridin-3-yl)-4-morpholinoquinazolin-2-yl)pyrimidin-2-amine]
> 1	> 1	Nc1ncc(-c2nc(N3CCOCC3)c3ccc(-c4cccnc4F)cc3n2)cn1 [Example 19, 5-(7-(2-fluoropyridin-3-yl)-4-morpholino-quinazolin-2-yl)-pyrimidin-2-amine]
0.05 to 0.2	0.05 to 0.2	CC(=O)N(C)c1cccc(-c2cnc3c(N4CCOCC4)nc(-c4cnc(N)nc4)nc3c2)c1 [Example 27, N-(3-(2-(2-amino-pyrimidin-5-yl)-4-morpholinopyrido[3,2-d]-pyrimidin-7-yl)phenyl)-N-methylacetamide]
< 0.05	0.201 to 10	CC(=O)Nc1cncc(-c2cnc3c(N4CCOCC4)nc(-c4cnc(N)nc4)nc3c2)c1 [Example 30, N-(5-(2-(2-amino-pyrimidin-5-yl)-4-morpholinopyrido[3,2-d]pyrimidin-7-yl)pyridin-3-yl)acetamide]
< 0.05	0.05 to 0.2	Nc1ncc(-c2nc(N3CCOCC3)c3ncc(-c4ccc(NC(=O)C5CC5)cc4F)cc3n2)cn1 [Example 32, N-(4-(2-(2-amino-pyrimidin-5-yl)-4-morpholinopyrido[3,2-d]pyrimidin-7-yl)-3-fluorophenyl)cyclo-propanecarboxamide]
< 0.05		CS(=O)(=O)N1CCN(C(=O)c2cccc(-c3cnc4c(N5CCOCC5)nc(-c5cnc(N)nc5)nc4c3)c2)CC1 [Example 36, (3-(2-(2-aminopyrimidin-5-yl)-4-morpholino-pyrido[3,2-d]pyrimidin-7-yl)phenyl)(4-(methyl-sulfonyl)piperazin-1-yl)-methanone]
< 0.05	0.05 to 0.2	CN(C)C(=O)c1cccc(-c2cnc3c(N4CCOCC4)nc(-c4cnc(N)nc4)nc3c2)c1 [Example 41, 3-(2-(2-aminopyrimidin-5-yl)-4-morpholinopyrido[3,2-d]pyrimidin-7-yl)-N,N-dimethylbenzamide]
0.201 to 10	0.05 to 0.2	CN(C)CC(=O)Nc1cccc(-c2ccc3c(N4CCOCC4)nc(-c4cnc(N)nc4)nc3c2)c1 [Example 42, N-(3-(2-(2-amino-pyrimidin-5-yl)-4-morpholinoquinazolin-7-yl)phenyl)-2-(dimethylamino)-acetamide]
0.201 to 10	< 0.05	CC(O)C(=O)Nc1cccc(-c2ccc3c(N4CCOCC4)nc(-c4cnc(N)nc4)nc3c2)c1 (stereo not shown) [Example 43, N-(3-(2-(2-amino-pyrimidin-5-yl)-4-morpholinoquinazolin-7-yl)phenyl)-2-hydroxy-propanamide]
0.05 to 0.2	0.201 to 10	C[C@H](O)C(=O)Nc1cccc(-c2ccc3c(N4CCOCC4)nc(-c4cnc(N)nc4)nc3c2)c1 [Example 44]
< 0.05	0.05 to 0.2	Nc1ncc(-c2nc(N3CCOCC3)c3ncc(-c4ccc(NC(=O)C5CC5)cc4)cc3n2)cn1 [Example 62, N-(4-(2-(2-amino-pyrimidin-5-yl)-4-morpholinopyrido[3,2-d]pyrimidin-7-yl)-phenyl)cyclopropane-carboxamide]
< 0.05	< 0.05	Nc1ncc(-c2nc(N3CCOCC3)c3ncc(-c4cccc(NC(=O)C5CCOCC5)c4)cc3n2)cn1 [Example 63, N-(3-(2-(2-amino-pyrimidin-5-yl)-4-morpholinopyrido[3,2-d]pyrimidin-7-yl)-phenyl)tetrahydro-2H-pyran-4-carboxamide]
< 0.05		Nc1ncc(-c2nc(N3CCOCC3)c3ncc(-c4cccc(NC(=O)c5csnn5)c4)cc3n2)cn1 [Example 69, N-(3-(2-(2-amino-pyrimidin-5-yl)-4-morpholinopyrido[3,2-d]pyrimidin-7-yl)phenyl)-1,2,3-thiadiazole-4-carboxamide]
< 0.05	< 0.05	Nc1ncc(-c2nc(N3CCOCC3)c3ncc(-c4cc(NC(=O)c5cccnc5)ccc4F)cc3n2)cn1 [Example 71, N-(3-(2-(2-amino-pyrimidin-5-yl)-4-morpholinopyrido[3,2-d]-pyrimidin-7-yl)-4-fluoro-phenyl)nicotinamide]
< 0.05		Cc1ccc(C(=O)Nc2ccc(F)c(-c3cnc4c(N5CCOCC5)nc(-c5cnc(N)nc5)nc4c3)c2)o1 [Example 72, N-(3-(2-(2-amino-pyrimidin-5-yl)-4-morpholinopyrido[3,2-d]pyrimidin-7-yl)-4-fluorophenyl)-5-methylfuran-2-carboxamide]
< 0.05		Cc1ccc(C(=O)Nc2ccc(-c3cnc4c(N5CCOCC5)nc(-c5cnc(N)nc5)nc4c3)cc2)o1 [Example 73, N-(4-(2-(2-amino-pyrimidin-5-yl)-4-morpholinopyrido[3,2-d]pyrimidin-7-yl)phenyl)-5-methylfuran-2-carboxamide]
< 0.05		Nc1ncc(-c2nc(N3CCOCC3)c3ncc(-c4cccc(NC(=O)c5ccc(F)cc5)c4)cc3n2)cn1 [Example 74, N-(3-(2-(2-amino-pyrimidin-5-yl)-4-morpholinopyrido[3,2-d]pyrimidin-7-yl)phenyl)-4-fluorobenzamide]
< 0.05	< 0.05	Cc1cc(C(=O)Nc2cccc(-c3cnc4c(N5CCOCC5)nc(-c5cnc(N)nc5)nc4c3)c2)[nH]n1 [Example 75, N-(3-(2-(2-amino-pyrimidin-5-yl)-4-morpholinopyrido[3,2-d]pyrimidin-7-yl)phenyl)-3-methyl-1H-pyrazole-5-carboxamide]
< 0.05		Nc1ncc(-c2nc(N3CCOCC3)c3ncc(-c4ccc(NC(=O)C5CCC5)cc4)cc3n2)cn1 [Example 78, N-(4-(2-(2-amino-pyrimidin-5-yl)-4-morpholinopyrido[3,2-d]pyrimidin-7-yl)-phenyl)cyclobutane-carboxamide]
< 0.05		Nc1ncc(-c2nc(N3CCOCC3)c3ncc(-c4ccc(NC(=O)c5ccco5)cc4)cc3n2)cn1 [Example 79, N-(4-(2-(2-amino-pyrimidin-5-yl)-4-morpholinopyrido[3,2-d]pyrimidin-7-yl)-phenyl)furan-2-carboxamide]
< 0.05	0.201 to 10	CN1CCN(C(=O)Nc2cccc(-c3ccc4c(N5CCOCC5)nc(-c5cnc(N)nc5)nc4c3)c2)CC1 [Example 87, N-(3-(2-(2-amino-pyrimidin-5-yl)-4-morpholinoquinazolin-7-yl)phenyl)-4-methyl-piperazine-1-carboxamide]
< 0.05		CC(C)(C#N)C(=O)N1CCN(c2cccc(-c3cnc4c(N5CCOCC5)nc(-c5cnc(N)nc5)nc4c3)c2)CC1 [Example 107, 3-(4-(3-(2-(2-amino-pyrimidin-5-yl)-4-morpholinopyrido[3,2-d]-pyrimidin-7-yl)-phenyl)piperazin-1-yl)-2,2-dimethyl-3-oxopropanenitrile]
